In patent US8772307B2, “Substituted spiro compounds and their use for producing pain-relief medicaments” (Gruenenthal GmbH, priority 2005, dated 2014) one finds inhibition, activation and IC50 data, which are given here for 21 molecules.

Experiment [1] has as its target T1, rat-species vanilloid receptor 1 (VR1/TRPV1) (Rattus norvegicus, UniProt O35433).
T1 construct: endogenous in cells; host or cells: primary cells dissociated from rat dorsal root ganglia (DRG)
Briefly: Functional testing on vanilloid receptor 1 (VR1/TRPV1): FLIPR Ca2+ inflow assay in rat dorsal root ganglia cells (% activation / % inhibition vs capsaicin). In kind it is cell-based. Particulars: for inhibition at 10 µM: inhibition compared to 10 μM CP (capsaicin); for activation at 10 µM: stimulation compared to 10 μM CP (capsaicin); for IC50: capsaicin (CAP) stimulus, average. An outline of the steps: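 Rat dorsal root ganglion cells, dissociated with collagenase and trypsin, were plated at 3×10^5/mL on laminin-coated plates in NGF-containing HAMS F12 and cultured 2-3 days at 37° C. Ca2+ inflow read by Fluo-4 fluorescence on FLIPR; test compounds at 10 μM referenced to 10 μM capsaicin.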

The next experiment deals with T2, vanilloid receptor (VR1) (Homo sapiens, UniProt Q8NER1).
T2 construct: expressed in transfected cells; host or cells: CHO K1 cells (ECACC), stably transfected
T2 sequence (Q8NER1 whole entry): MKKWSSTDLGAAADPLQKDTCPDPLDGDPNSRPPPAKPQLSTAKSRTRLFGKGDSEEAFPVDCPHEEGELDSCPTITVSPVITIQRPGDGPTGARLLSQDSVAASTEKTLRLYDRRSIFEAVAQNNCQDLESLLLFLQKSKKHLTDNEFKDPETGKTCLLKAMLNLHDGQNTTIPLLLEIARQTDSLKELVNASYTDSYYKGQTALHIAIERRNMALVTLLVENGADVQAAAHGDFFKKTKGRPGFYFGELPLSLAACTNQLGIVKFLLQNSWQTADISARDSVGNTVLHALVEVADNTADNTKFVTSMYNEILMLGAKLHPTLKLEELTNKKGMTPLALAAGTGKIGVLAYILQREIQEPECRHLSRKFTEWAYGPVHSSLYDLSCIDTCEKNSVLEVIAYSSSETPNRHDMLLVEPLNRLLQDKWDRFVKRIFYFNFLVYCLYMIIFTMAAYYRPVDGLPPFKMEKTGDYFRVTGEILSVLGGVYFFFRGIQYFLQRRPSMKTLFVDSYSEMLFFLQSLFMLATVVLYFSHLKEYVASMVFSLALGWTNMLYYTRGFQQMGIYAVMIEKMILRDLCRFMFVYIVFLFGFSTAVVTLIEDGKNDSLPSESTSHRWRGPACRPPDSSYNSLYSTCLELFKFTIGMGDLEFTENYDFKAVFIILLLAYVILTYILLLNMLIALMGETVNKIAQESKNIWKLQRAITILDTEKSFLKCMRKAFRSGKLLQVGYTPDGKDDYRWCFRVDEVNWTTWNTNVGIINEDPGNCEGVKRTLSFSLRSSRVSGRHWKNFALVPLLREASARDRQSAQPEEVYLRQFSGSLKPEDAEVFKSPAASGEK
The experiment can be described thus: Functional testing on vanilloid receptor (VR1): FLIPR Ca2+ inflow assay in CHO K1 cells stably transfected with the VR1 gene. In kind it is cell-based. Particulars: for inhibition at 10 µM: CHO-K1, inhibition compared to 10 μM CP (capsaicin); for activation at 10 µM: CHO-K1, stimulation compared to 10 μM CP (capsaicin); for IC50: capsaicin (CAP) stimulus, average. An outline of the steps:
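CHO K1 cells stably expressing VR1, loaded with Fluo-4 (2 μM, 30 min, 37° C); peak Ca²⁺ fluorescence read on FLIPR. Compound (10 μM) added first, agonism as % of 10 μM capsaicin signal; after 5 min, 100 nM capsaicin added, % inhibition calculated relative to maximal inhibition with 10 μM capsaicin.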

T1 sequence (O35433 whole entry): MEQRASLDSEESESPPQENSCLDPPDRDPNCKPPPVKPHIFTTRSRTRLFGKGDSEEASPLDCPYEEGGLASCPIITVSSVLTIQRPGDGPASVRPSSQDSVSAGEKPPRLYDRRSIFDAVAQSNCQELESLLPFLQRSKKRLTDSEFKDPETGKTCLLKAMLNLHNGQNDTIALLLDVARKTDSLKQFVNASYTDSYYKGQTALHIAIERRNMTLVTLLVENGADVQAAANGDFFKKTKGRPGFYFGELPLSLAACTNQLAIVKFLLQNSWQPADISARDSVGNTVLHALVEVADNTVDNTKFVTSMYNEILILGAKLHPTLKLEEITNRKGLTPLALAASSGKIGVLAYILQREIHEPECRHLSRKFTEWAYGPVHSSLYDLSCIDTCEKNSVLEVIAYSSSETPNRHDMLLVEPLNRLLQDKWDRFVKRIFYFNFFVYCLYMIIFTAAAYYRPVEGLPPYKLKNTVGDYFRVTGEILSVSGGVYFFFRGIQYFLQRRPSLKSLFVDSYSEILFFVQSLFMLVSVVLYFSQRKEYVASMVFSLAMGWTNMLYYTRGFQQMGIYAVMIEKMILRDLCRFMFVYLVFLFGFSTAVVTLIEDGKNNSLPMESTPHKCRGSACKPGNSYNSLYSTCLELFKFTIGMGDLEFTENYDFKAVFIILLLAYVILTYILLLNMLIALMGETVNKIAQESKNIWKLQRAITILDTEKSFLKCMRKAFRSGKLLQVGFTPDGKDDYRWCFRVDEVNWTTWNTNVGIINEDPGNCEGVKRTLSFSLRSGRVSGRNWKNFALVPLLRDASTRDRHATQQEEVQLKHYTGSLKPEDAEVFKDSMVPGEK

One may read the inhibition as the drop in the measured response relative to a control, in per cent. Take `CC(C)(C)c1ccc(C(/C=C/c2ccccc2)=C/C(=O)N2CCC3(CC2)CC(c2ccccc2)=NO3)cc1` [Compound 337, (2E,4E)-3-(4-tert-butylphenyl)-5-phenyl-1-(3-phenyl-1-oxa-2,8-diazaspiro[4.5]dec-2-en-8-yl)penta-2,4-dien-1-one]: the inhibition at 10 µM was found to be 95% in experiment [1] and 16% against vanilloid receptor (VR1). The values for the activation at 10 µM (in experiment [1]; on vanilloid receptor (VR1)) were 1% and -1%, respectively.
For `COc1cc(C2=NOC3(CCN(C(=O)Nc4ccc(C(C)(C)C)cc4)CC3)C2)ccc1Cl` [Compound 378, N-(4-tert-butylphenyl)-3-(4-chloro-3-methoxyphenyl)-1-oxa-2,8-diazaspiro[4.5]dec-2-ene-8-carboxamide], the figures for the inhibition at 10 µM (in experiment [1]; at vanilloid receptor (VR1)) were 99% and 81%, respectively. The figures for the activation at 10 µM (in experiment [1]; at vanilloid receptor (VR1)) were 33% and 42%, respectively.
`CC(C)c1ccc(NC(=O)N2CCC3(CC2)CC(c2ccccc2)=NO3)cc1` [Compound 78, 3-phenyl-1-oxa-2,8-diazaspiro[4.5]dec-2-ene-8-carboxylic acid-(4-isopropylphenyl)amide]: in experiment [1], the inhibition at 10 µM stood at 95% and the activation at 10 µM is 0.02%. In addition, at vanilloid receptor (VR1), the inhibition at 10 µM is 11.8% and the activation at 10 µM was determined as 0.11%.
`COc1cccc(C2=NOC3(CCN(C(=O)NCCc4ccccc4)CC3)C2)c1` [Compound 122, 3-(3-methoxyphenyl)-1-oxa-2,8-diazaspiro[4.5]dec-2-ene-8-carboxylic acid phenethylamide]: in experiment [1], the inhibition at 10 µM was 49.2% and the activation at 10 µM is -0.47%. Besides, at vanilloid receptor (VR1), the inhibition at 10 µM is -13.1% and the activation at 10 µM came out at 0.07%.
A word on the IC50: it is the concentration needed to halve the response being measured. Higher therefore signals lower potency. As to `CC(C)(C)c1ccc(C=CC(=O)N2CCC3(CC2)CC(c2ccccc2)=NO3)cc1` [Compound 323, 3-(4-tert-butylphenyl)-1-(3-phenyl-1-oxa-2,8-diazaspiro[4.5]dec-2-en-8-yl)propenone], in experiment [1], the IC50 stood at 181 nM, the inhibition at 10 µM stood at 98% and the activation at 10 µM was found to be 0%. At vanilloid receptor (VR1), the inhibition at 10 µM stood at 36%, the activation at 10 µM is 0% and the concentration for half-maximal inhibition (IC50) worked out at 1440 nM.
On to `CSc1ccccc1NC(=O)N1CCC2(CC1)CC(c1ccc(C(C)(C)C)cc1)=NO2` [Compound 56, 3-(4-tert-butylphenyl)-1-oxa-2,8-diazaspiro[4.5]dec-2-ene-8-carboxylic acid-(2-methylsulphanylphenyl)amide], for which, in experiment [1], the inhibition at 10 µM came out at 47.3% and the activation at 10 µM is -0.04%. On vanilloid receptor (VR1), the inhibition at 10 µM was 16.4% and the activation at 10 µM was -0.22%.
For `CC(C)(C)c1ccc(NC(=O)N2CCC3(CC2)CC(c2ccc(F)cc2)=NO3)cc1` [Compound 349, N-(4-tert-butylphenyl)-3-(4-fluorophenyl)-1-oxa-2,8-diazaspiro[4.5]dec-2-ene-8-carboxamide], in that order: 100%, 5%, -12% and 1%.
Consider `CCc1ccc(NC(=O)N2CCC3(CC2)CC(c2ccc(C(F)(F)F)cc2)=NO3)cc1` [Compound 167, 3-(4-trifluoromethylphenyl)-1-oxa-2,8-diazaspiro[4.5]dec-2-ene-8-carboxylic acid-(4-ethylphenyl)amide], for which, in experiment [1], the inhibition at 10 µM stood at 47.4% and the activation at 10 µM was -0.43%. In addition, on vanilloid receptor (VR1), the inhibition at 10 µM amounted to 17.5% and the activation at 10 µM amounted to 0.06%.
The corresponding values for `CC(C)(C)c1ccc(NC(=O)N2CCC3(CC(c4ccccc4)=NO3)C2)cc1` (stereo not drawn) [Compound 371, N-(4-tert-butylphenyl)-3-phenyl-1-oxa-2,7-diazaspiro[4.4]non-2-ene-7-carboxamide] are 99%, 35%, 12% and 1%.
As to `COc1cccc(C2=NOC3(CCN(C(=O)Nc4ccc(C(F)(F)F)cc4)CC3)C2)c1` [Compound 210, 3-(3-methoxyphenyl)-1-oxa-2,8-diazaspiro[4.5]dec-2-ene-8-carboxylic acid-(4-trifluoromethylphenyl)amide], in experiment [1], the inhibition at 10 µM came to 98% and the activation at 10 µM is 0.22%. Further, on vanilloid receptor (VR1), the inhibition at 10 µM was determined as 7.12% and the activation at 10 µM is -0.21%.
As to `COc1cccc(NC(=O)N2CCC3(CC2)CC(c2ccccc2)=NO3)c1` [Compound 205, 3-phenyl-1-oxa-2,8-diazaspiro[4.5]dec-2-ene-8-carboxylic acid-(3-methoxyphenyl)amide], in experiment [1], the inhibition at 10 µM was 39.9% and the activation at 10 µM stood at 0.15%. In addition, on vanilloid receptor (VR1), the inhibition at 10 µM is -23.9% and the activation at 10 µM amounted to 0.33%.
The corresponding values for `O=C(Nc1cccc(Br)c1)N1CCC2(CC1)CC(c1ccccc1)=NO2` [Compound 193, 3-phenyl-1-oxa-2,8-diazaspiro[4.5]dec-2-ene-8-carboxylic acid-(3-bromophenyl)amide] are 43.6%, -0.17%, -2.64% and 0.11%.
With `Cc1ccc(C2=NOC3(CCN(C(=O)Nc4cc(C(F)(F)F)ccc4Cl)CC3)C2)cc1` [Compound 225, 3-p-tolyl-1-oxa-2,8-diazaspiro[4.5]dec-2-ene-8-carboxylic acid-(2-chloro-5-trifluoromethylphenyl)amide], the inhibition at 10 µM in experiment [1] is 47.8%; on vanilloid receptor (VR1), -4.5%. Also, the results for the activation at 10 µM (in experiment [1]; on vanilloid receptor (VR1)) were -0.47% and 0.31%, respectively.
The corresponding values for `CCc1ccc(NC(=O)N2CCC3(CC2)CC(c2ccc(C(C)(C)C)cc2)=NO3)cc1` [Compound 165, 3-(4-tert-butylphenyl)-1-oxa-2,8-diazaspiro[4.5]dec-2-ene-8-carboxylic acid-(4-ethylphenyl)amide] are 56.2%, 1.69%, -0.43% and 1.92%.
For `CC1CN(C(=O)/C=C/c2ccc(C(F)(F)F)nc2N2CCCCC2)CCC12CC(c1ccccc1)=NO2` (stereo not drawn) [Compound 367, (E)-1-(6-methyl-3-phenyl-1-oxa-2,8-diazaspiro[4.5]dec-2-en-8-yl)-3-(2-(piperidin-1-yl)-6-(trifluoromethyl)pyridin-3-yl)prop-2-en-1-one], in that order: 96%, 93%, -1% and 0%.
In the case of `COc1cccc(C2=NOC3(CCN(C(=O)/C=C/c4ccc(C(F)(F)F)nc4N4CCOCC4)CC3)C2)c1` [Compound 342, (E)-1-(3-(3-methoxyphenyl)-1-oxa-2,8-diazaspiro[4.5]dec-2-en-8-yl)-3-(2-morpholino-6-(trifluoromethyl)pyridin-3-yl)prop-2-en-1-one], in experiment [1], the half-maximal inhibitory concentration (IC50) was found to be 478 nM, the inhibition at 10 µM turned out to be 60% and the activation at 10 µM came to 0%. On vanilloid receptor (VR1), the inhibition at 10 µM was 53%, the activation at 10 µM came out at 0% and the IC50 was 1550 nM.
Take `O=C(C=Cc1ccc(C(F)(F)F)cc1)N1CCC2(CC1)CC(c1ccccc1)=NO2` [Compound 314, 1-(3-phenyl-1-oxa-2,8-diazaspiro[4.5]dec-2-en-8-yl)-3-(4-trifluoromethylphenyl)propenone]: in experiment [1], the IC50 came out at 150 nM, the inhibition at 10 µM amounted to 82% and the activation at 10 µM was -6%. Further, on vanilloid receptor (VR1), the inhibition at 10 µM was determined as 6%, the activation at 10 µM worked out at 0% and the IC50 came out at 825 nM.
`FC(F)(F)c1cccc(NC(=S)N2CCC3(CC2)CC(c2ccccc2)=NO3)c1` [Compound 262, 3-phenyl-1-oxa-2,8-diazaspiro[4.5]dec-2-ene-8-thiocarboxylic acid-(3-trifluoromethylphenyl)amide]: in experiment [1], the inhibition at 10 µM came out at 52.5% and the activation at 10 µM was -0.54%. In addition, on vanilloid receptor (VR1), the inhibition at 10 µM was found to be 7.81% and the activation at 10 µM is -0.28%.
As to `CC(C)(C)c1ccc(NC(=O)N2CCC3(CC2)CC(c2ccc(Cl)cc2)=NO3)cc1` [Compound 142, 3-(4-chlorophenyl)-1-oxa-2,8-diazaspiro[4.5]dec-2-ene-8-carboxylic acid-(4-tert-butylphenyl)amide], in experiment [1], the inhibition at 10 µM is 63% and the activation at 10 µM is -0.2%. Moreover, at vanilloid receptor (VR1), the inhibition at 10 µM is -18.8% and the activation at 10 µM is -0.07%.
The corresponding values for `CCCc1ccccc1NC(=O)N1CCC2(CC1)CC(c1ccccc1)=NO2` [Compound 22, 3-phenyl-1-oxa-2,8-diazaspiro[4.5]dec-2-ene-8-carboxylic acid-(2-propylphenyl)amide] are 40.3%, -0.73%, 10.1% and -0.14%.
For `COc1cccc(C2=NOC3(CCN(C(=O)Nc4cccc(SC)c4)CC3)C2)c1` [Compound 59, 3-(3-methoxyphenyl)-1-oxa-2,8-diazaspiro[4.5]dec-2-ene-8-carboxylic acid-(3-methylsulphanylphenyl)amide], in that order: 48.6%, 0.51%, 2.09% and 0.01%.
